Source: US8741659B2, “Composition for measuring the binding affinity between nucleic acid and test substance, and use thereof” (Osaka University, priority 2007, dated 2014)

Legend:
RRE [1] = experiment: Displacement assay using Rev peptide after formation of complex with RRE; assay type: binding, HIV-1; details: for fluorescence intensity in displacement assay / recovery rate of the fluorescence intensity: compound and RRE each 2 μM
Method: In this Example, a binding affinity between a test substance and RRE was evaluated, with use of the compounds, X2S, X2S(3), X2S(4), X2S(5), X2S(2-Me), and 3,6-X2S(2). As the test substance, Rev protein used in Example 5 was used.
Firstly, in the same manner as in Example 3, the above compounds and RREs were respectively dissolved in cacodylate buffer solutions (sodium cacodylate: 10 mM pH 7.0, NaCl: 100 mM) each at 2 μM, so that an X2S-RRE solution, an X2S(3)-RRE solution, an X2S(4)-RRE solution, an X2S(5)-RRE solution, an X2S(2-Me)-RRE solution, and a 3,6-X2S(2)-RRE solution were prepared.
To each of these solutions, Rev protein was added in stages at 0 μM, 0.4 μM, 0.8 μM, 1.2 μM, 1.6 μM, 2.0 μM, 2.4 μM, 2.8 μM, 3.2 μM, 3.6 μM, and 4.0 μM. Further, a fluorescence intensity was measured at each concentration. The fluorescence intensity was measured in the same manner as that described in Example 14.
Each of FIGS. 43 to 48 is a view illustrating a result of the measurement of a binding affinity between Rev protein and RRE. […] In each of FIGS. 43 to 48, the horizontal axis represents the fluorescence wavelength, whereas the vertical axis represents the fluorescence intensity. […] Further, along the direction of the arrow extending from the curved line at the bottom, the curved lines, showing the respective results, are arranged in order of increasing amount of the test substance which was added.
FIG. 49 is a view illustrating a relationship between an amount of Rev added and a fluorescence intensity, in connection with X2S, X2S(3), X2S(4), X2S(5), X2S(2-Me), and 3,6-X2S(2). Further, FIG. 49 is also a view plotting, based on the results illustrated in FIGS. 43 to 48, the fluorescence intensities detected at the fluorescence wavelength at which the respective fluorescence peaks were observed. FIG. 50 is a graph illustrating a relationship between an amount of Rev added and a recovery rate of the fluorescence intensity. In FIG. 49, the vertical axis represents the fluorescence intensity. In FIG. 50, the vertical axis represents the recovery rate of the fluorescence intensity. In each of FIGS. 49 and 50, the horizontal axis represents the amount of Rev added. That is, each of FIGS. 49 and 50 reflects amounts of the above compounds liberated from RREs due to the addition of Rev.
The recovery rate of the fluorescence intensity was obtained by dividing (i) a maximum value of the fluorescence intensity detected at each Rev concentration ranging from 0 μM to 4.0 μM in each of FIGS. 43 to 48 by (ii) a maximum value of the fluorescence intensity of the curved line at the top in each of FIGS. 43 to 48.
In this Example, 1-Pyrenemethanamide, hydrochloride was used to measure a binding affinity between a test substance and RRE. As the test substance, Rev protein used in Example 5 was used.
Firstly, in the same manner as in Example 3, 1-Pyrenemethanamide, hydrochloride and RRE were dissolved in a cacodylate buffer solution (sodium cacodylate: 10 mM, pH 7.0; NaCl: 100 mM) each at 2 μM, so that a 1-Pyrenemethanamide, hydrochloride-RRE solution was prepared.
To the solution, Rev protein was added in steps at 0 μM, 0.4 μM, 0.8 μM, 1.2 μM, 1.6 μM, 2.0 μM, 2.4 μM, 2.8 μM, 3.2 μM, 3.6 μM, and 4.0 μM. Further, the solution at each concentration was irradiated with light having an excitation wavelength of 340 nm, and a fluorescence intensity was measured. A device used for measuring a fluorescence intensity and a variation in a slit width were the same as those in Example 13.
FIG. 55 is a view illustrating a result of the measurement of a binding affinity between Rev protein and RRE. The horizontal axis represents the fluorescence wavelength, whereas the vertical axis represents the fluorescence intensity. […] Further, along a bottom-to-top direction, the curved lines, showing the respective results, are arranged in order of increasing amount of the test substance which was added. […]

[2] = test system: RNAs of FIG. 2 (SEQ ID NOs: 1 through 3), with or without bulge structure; experiment: Evaluation of binding between xanthone fluorescent molecule and RNA (fluorescence before and after mixing RNA); details: 10 μM compound
Method: Next, binding between X2S and RNAs was evaluated. The RNAs used in the present example had the structure illustrated in FIG. 2. FIG. 2 is a diagram schematically illustrating the structure of the RNAs used in the present example. The RNAs used in the present example had sequences shown in SEQ ID NOs: 1 through 3.
The symbol N in FIG. 2 represents either a base out of A, U, C, and G, or no base. Thus, in a case where a particular RNA as in FIG. 2 has N representing a base out of A, U, C, and G, the RNA is an RNA formed by hybridization of an RNA having the base sequence shown in SEQ ID NO: 1 with a single strand RNA having the base sequence shown in SEQ ID NO: 2. On the other hand, in a case where a particular RNA as in FIG. 2 has N representing no base, the RNA is an RNA formed by hybridization of an RNA having the base sequence shown in SEQ ID NO: 1 with an RNA having the base sequence shown in SEQ ID NO: 3.
This also applies to other bases. The RNAs used in the present example were purchased from Hokkaido System Science Co., Ltd.
Firstly, X2S was mixed in a cacodylate buffer solution (sodium cacodylate: 10 mM, pH 7.0; NaCl: 100 mM) at 10 μM, so that an X2S solution was obtained. The X2S solution was irradiated with light having an absorption maximum of 371±3 nm, and a fluorescence intensity was then measured. The fluorescence intensity was measured with use of a device (product number: RF-5300PC) available from Shimadzu Corporation. For each type of the RNAs, the fluorescence intensity was measured after the RNA was mixed in the X2S solution at 30 μM.
FIGS. 3 and 4 compare the fluorescence intensities measured before and after the RNA was mixed. […] The horizontal axis represents the fluorescence wavelength, whereas the vertical axis represents the fluorescence intensity. FIG. 4 is an enlarged graph corresponding to the fluorescence intensity of 5 A.U. in FIG. 3 and its vicinity.
Binding between X1S and RNAs was evaluated by a method identical to the method described in Example 2, except that X1S was used instead of X2S. […]

RRE [3] = experiment: Displacement assay using X2S; assay type: binding, HIV-1; details: for binding affinity with respect to RRE / change of fluorescence intensity on addition of test substance: X2S and RRE each 2 μM, test substance 0-4.0 μM; for change of fluorescence intensity on addition of test substance: 453 nm
Source text: In this Example, X2S was used to measure a binding affinity between a test substance and RRE. As the test substance, Rev protein (supplied by Professor Takashi MORII, Graduates School of Energy Science, Kyoto University), aminoglycoside antibiotic neomycin (available from Sigma-Aldrich, product number; N-1876) (hereinafter, simply referred to as “neomycin”), and thrombin (available from Bachem, product number; AG H-8550) were used. […] The structure of Rev protein is shown in FIG. 9, and the amino acid sequence of Rev protein is shown in SEQ ID NO: 5. FIG. 9 is a view schematically illustrating the structure of Rev protein. Further, the structure of thrombin is shown in FIG. 10, and the amino acid sequence of thrombin is shown in SEQ ID NO: 6. FIG. 10 is a view schematically illustrating the structure of thrombin.
Firstly, in the same manner as in Example 3, X2S and RRE were dissolved in a cacodylate buffer solution (sodium cacodylate: 10 mM, pH 7.0; NaCl: 100 mM) each at 2 μM. Thus, an X2S-RRE solution was prepared.
To the X2S-RRE solution, Rev protein was added in steps at 0 μM, 0.4 μM, 0.8 μM, 1.2 μM, 1.6 μM, 2.0 μM, 2.4 μM, 2.8 μM, 3.2 μM, 3.6 μM, and 4.0 μM. Further, a fluorescence intensity was measured at each concentration. Similarly, to the X2S-RRE solution, neomycin was added in steps at 0 μM, 0.4 μM, 0.8 μM, 1.2 μM, 1.6 μM, 2.0 μM, 2.4 μM, 2.8 μM, 3.2 μM, 3.6 μM, and 4.0 μM. Further, a fluorescence intensity was measured at each concentration. Similarly, to the X2S-RRE solution, thrombin was added in steps at 0 μM, 0.4 μM, 0.8 μM, 1.2 μM, 1.6 μM, 2.0 μM, 2.4 μM, 2.8 μM, 3.2 μM, 3.6 μM, and 4.0 μM. Further, a fluorescence intensity was measured at each concentration. The fluorescence intensities were measured in the same manner as that described in Example 2.
FIG. 11 is a view illustrating a result of the measurement of a binding affinity between Rev protein and RRE; FIG. 12 is a view illustrating a result of the measurement of a binding affinity between neomycin and RRE; and FIG. 13 is a view illustrating a result of the measurement of a binding affinity between thrombin and RRE. In each of FIGS. 11 to 13, the horizontal axis represents the fluorescence wavelength, whereas the vertical axis represents the fluorescence intensity. […] Furthermore, along the direction of the arrow extending from the curved line at the bottom, the curved lines are arranged in order of increasing amount of the test substance which was added.
FIG. 14 is a view plotting the fluorescence intensities at a fluorescence wavelength of 453 nm shown in the results illustrated in FIGS. 11 to 13. The horizontal axis represents the concentration of each test substance, whereas the vertical axis represents the fluorescence intensity. In FIG. 14, the circle marks represent the result obtained in the case involving use of Rev protein, the square marks represent the result obtained in the case involving use of neomycin, and the triangle marks represent the result obtained in the case involving use of thrombin.
A displacement assay using X2S was performed in the same manner as that described in Example 5, except that, in this Example, fluorescence was measured also when Rev protein was added at concentrations of 4.4 μM and 4.8 μM.
FIG. 16 is a view illustrating the result of the displacement assay using X2S. The horizontal axis represents the fluorescence wavelength, whereas the vertical axis represents the fluorescence intensity.

NCCOc1ccc2c(=O)c3ccc(OCCN)cc3oc2c1 [3,6-X2S(2), 3,6-bis(2-aminoethoxy)xanthen-9-one]
fluorescence intensity in displacement assay (RRE [1]; Rev protein 0-4.0 μM): low
recovery rate of the fluorescence intensity (RRE [1]; Rev protein 0-4.0 μM): almost equal to that of X2S

NCCOc1ccc2oc3ccccc3c(=O)c2c1 [X1S, 2-(2-aminoethoxy)xanthen-9-one]
binding to RNAs ([2]; 30 μM RNA (A, U, C, G bulge or no bulge), cacodylate buffer pH 7.0, NaCl 100 mM): binds to RNAs regardless of whether the bulge structure is present
detected decrease in the fluorescence intensity on mixing RNA ([2]; 30 μM RNA, compared with X2S): small as compared to the case of X2S

CC(N)COc1ccc2oc3ccc(OCC(C)N)cc3c(=O)c2c1 (stereo not shown) [X2S(2-Me), 2,7-bis(2-methyl-2-aminoethoxy)xanthen-9-one]
fluorescence intensity in displacement assay (RRE [1]; Rev protein 0-4.0 μM): lower than that of X2S
recovery rate of the fluorescence intensity (RRE [1]; Rev protein 0-4.0 μM): highest

Rev protein: Rev protein, SEQ ID NO: 5, known to bind to RRE; test substance (TRQARRNRRRRWRERQRAAAAR; Human immunodeficiency virus type 1)
change of fluorescence intensity on addition of Rev protein (RRE [1]; 1-Pyrenemethanamide, hydrochloride and RRE each 2 μM, excitation 340 nm): increased the fluorescence intensity
binding affinity of Rev protein with respect to RRE (RRE [1]; measured with X2S, X2S(3), X2S(4), X2S(5), X2S(2-Me), 3,6-X2S(2), each 2 μM with RRE): significantly high binding affinity
change of fluorescence intensity on addition of Rev protein (RRE [1]; xanthone compounds and RRE each 2 μM, Rev protein 0-4.0 μM): increased the fluorescence intensity
binding affinity with respect to RRE (RRE [3]): significantly high binding affinity
change of fluorescence intensity on addition of test substance (RRE [3]): increased the fluorescence intensity
fluorescence intensity recovered (RRE [3]; X2S-RRE solution, FIG. 14, 453 nm): approximately 80%

neomycin [reference compound]
binding affinity with respect to RRE (RRE [3]): lower binding affinity with respect to RRE compared with Rev protein
change of fluorescence intensity on addition of test substance (RRE [3]): slightly increased the fluorescence intensity

thrombin
binding affinity with respect to RRE (RRE [3]): does not bind to RRE
change of fluorescence intensity on addition of test substance (RRE [3]): hardly increased the fluorescence intensity
